One data set concerns the target T1, human CAR LBD (Homo sapiens, UniProt Q14994).
T1 construct: C (151-349 aa) and N (103-150 aa) terminal parts of human CAR LBD; N (103-150 aa) terminal parts of human CAR LBD; expressed in transfected cells; host or cells: HepG2
T1 sequence (Q14994 151-348 isoform Q14994-2 limits assumed): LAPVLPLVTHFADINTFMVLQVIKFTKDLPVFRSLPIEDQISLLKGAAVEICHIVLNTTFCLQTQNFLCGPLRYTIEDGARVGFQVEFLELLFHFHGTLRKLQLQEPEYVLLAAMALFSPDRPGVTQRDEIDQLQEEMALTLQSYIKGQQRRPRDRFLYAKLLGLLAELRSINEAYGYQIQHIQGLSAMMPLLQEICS
T1 sequence (Q14994 103-150 isoform Q14994-2 limits assumed): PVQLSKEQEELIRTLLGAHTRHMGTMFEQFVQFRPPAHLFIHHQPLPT
Kind of data set: CAR LBD assembly assay (two hybrid luciferase reporter in HepG2 cells). The data set is classed as cell-based. The procedure: A ligand promotes connection of the two parts of CAR LBD resulting in luciferase transactivation. Luminescence activity in the cell lysate was measured using a commercially available luciferase detection system (Catalog Number E1960, Dual Luciferase Reporter Assay Kit, Promega, Madison, Wis., USA). The data are presented as means and S.D. and expressed as the fold-change of firefly luciferase activity normalized to Renilla luciferase activity in each sample and relative to the vehicle (DMSO 0.1%)-treated controls, which were set at 1.
(Reporter assays use an easily measured gene product as a stand-in for the process of interest.)

Another data set deals with T2, CAR variant 3 (Homo sapiens, UniProt Q14994, DEL233-236).
T2 construct: expressed in transfected cells; host or cells: HepG2
T2 sequence (Q14994 with tags, fused parts or gaps isoform Q14994-8 DEL233-236): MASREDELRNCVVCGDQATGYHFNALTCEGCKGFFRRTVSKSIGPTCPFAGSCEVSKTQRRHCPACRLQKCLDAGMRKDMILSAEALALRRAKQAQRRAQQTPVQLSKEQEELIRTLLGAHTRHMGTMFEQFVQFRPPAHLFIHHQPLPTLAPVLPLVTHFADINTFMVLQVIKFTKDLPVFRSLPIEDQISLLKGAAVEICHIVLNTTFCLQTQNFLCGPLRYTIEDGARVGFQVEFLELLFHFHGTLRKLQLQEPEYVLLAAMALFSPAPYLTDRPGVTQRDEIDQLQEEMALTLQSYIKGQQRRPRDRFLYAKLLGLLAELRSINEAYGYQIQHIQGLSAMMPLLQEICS
T2 sequence (P19793 1-462 partner): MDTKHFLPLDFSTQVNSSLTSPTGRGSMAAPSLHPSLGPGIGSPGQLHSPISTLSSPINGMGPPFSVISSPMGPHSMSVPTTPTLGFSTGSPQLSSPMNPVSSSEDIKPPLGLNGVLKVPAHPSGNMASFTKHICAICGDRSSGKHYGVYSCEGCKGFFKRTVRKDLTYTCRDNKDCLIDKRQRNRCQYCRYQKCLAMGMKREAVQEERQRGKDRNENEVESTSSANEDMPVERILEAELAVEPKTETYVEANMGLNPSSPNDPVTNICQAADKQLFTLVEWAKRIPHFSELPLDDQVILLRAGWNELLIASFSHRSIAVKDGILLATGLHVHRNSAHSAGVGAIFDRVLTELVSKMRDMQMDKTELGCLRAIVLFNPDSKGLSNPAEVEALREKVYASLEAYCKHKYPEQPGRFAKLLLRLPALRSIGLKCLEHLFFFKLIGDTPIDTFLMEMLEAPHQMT
Nature of the data set: Luciferase reporter gene assay with CAR variant 3 in HepG2 cells. The data set is classed as cell-based. The settings on record: tested at 1 μM; HepG2, 24 h.

A further data set deals with HepG2 cells. Kind of data set: Cytotoxicity, cell viability (MTS) in HepG2. The data set is classed as cell-based. As to conditions: Homo sapiens, 48-h treatment, no significant effect at 30 μM/L. The procedure:
(§1) Cell viability in HepG2 and COS-1 cells after a 48 h treatment with test compounds at a concentration from 1 up to 30 μM was determined using the modified formazan-based […] assay. […] Briefly, the cells were treated with the test compounds or vehicle alone (DMSO) for 48 h. At the end of the treatment, 20 μl of MTS reagent was added directly to each culture wells and further cultivated for 1.5 h. Finally, the absorbance of converted formazan was recorded at 490 nm by plate reader (BioTec Synergy 2. Winooski. Vt. USA). Vehicle (DMSO) and TritonX100 (0.9%; v/v) controls of cell viability were set to be 100% and 0%, respectively.

The next data set concerns COS-1 cells. Nature of the data set: Cytotoxicity, cell viability (MTS) in COS-1. The data set is classed as cell-based, African green monkey. As to conditions: Chlorocebus sabaeus, 48-h treatment, no significant effect at 30 μM/L. The procedure:
as §1

In data set [1] the test system is differentiated HepaRG cells. Kind of data set: Viability/cytotoxicity in differentiated HepaRG cells. Type of data set: cell-based, human. The settings on record: 48 h treatment.
For data set [2], the system named is primary human hepatocytes. Kind of data set: Viability/cytotoxicity in primary human hepatocytes. Type of data set: cell-based. As to conditions: 48 h treatment.
The subject of data set [3] is CAR+A-EGFP fusion protein. Nature of the data set: CAR+A-EGFP translocation into nucleus in COS-1 cells. The data set is classed as cell-based. As to conditions: 10 μM/L, 48 h.
The target in the next data set is T3, PPARγ (Homo sapiens, UniProt P37231).
T3 construct: luciferase reporter assays with a GAL4 constructs with LBD of tested nuclear receptors; expressed in transfected cells
Kind of data set: Luciferase reporter assay with GAL4 construct with LBD, PPARγ. The data set is classed as cell-based. The settings on record: 10 μM/L.

In another data set the target is T4, PPARδ (Homo sapiens, UniProt Q03181).
T4 construct: luciferase reporter assays with a GAL4 constructs with LBD of tested nuclear receptors; expressed in transfected cells
Nature of the data set: Luciferase reporter assay with GAL4 construct with LBD, PPARδ. Type of data set: cell-based. The settings on record: 10 μM/L.

In the next data set the target is T5, live X receptor α (Homo sapiens, UniProt Q13133).
T5 construct: luciferase reporter assays with a GAL4 constructs with LBD of tested nuclear receptors; expressed in transfected cells
Kind of data set: Luciferase reporter assay with GAL4 construct with LBD, live X receptor α. Type of data set: cell-based. The settings on record: 10 μM/L.

A short description of data set [4]: Human plasma protein binding (micro-equilibrium dialysis). Type of data set: in vitro ADME. As to conditions: at 1 μM/L.
The next data set deals with T6, human CYP1A2 (Homo sapiens, UniProt P05177).
T6 construct: purchased Promega V8772
Kind of data set: Commercial CYP450-Glo inhibition assay, CYP1A2. Type of data set: in vitro ADME.

The subject of data set [5] is CYP2B6 mRNA (CAR target gene). Kind of data set: RT-qPCR of CYP2B6 mRNA in HepaRG cells. Type of data set: cell-based, human. The settings on record: 24 h of treatment (FIG. 3). The source says: Delta-delta method and GAPDH/Gapdh or B2M/B2m housekeeping genes were used for relative quantification. Data are expressed as fold up-/down-regulation compare to vehicle-treated samples/mice.
On the technique in general: Real-time PCR tracks product formation cycle by cycle.

The test system of data set [6] is CAR target genes mRNAs (Cyp2b10, Cyp2c29, CYP3A4). Kind of data set: Single dose study in humanized PXR-CAR-CYP3A4/3A7 mice, liver RT-qPCR. The data set is classed as in vivo. As to conditions: single p.o. 10 mg/kg, 24 hours (FIG. 5).
For data set [7], the system named is CYP3A4, CYP1A2, CYP2C9, CYP2C19, CYP2C8, CYP2D6, CYP2B6 (panel). Kind of data set: in vitro. The settings on record: both, human, pooled human liver microsomes. On the technique in general: Liver microsomes are vesicles of endoplasmic reticulum, rich in cytochrome P450 enzymes.
Data set [8] is described as follows: Pharmacokinetic studies in mice.

Entries after “also recorded” stand apart in the source; their conditions may differ.

T5 sequence (Q13133 209-447 limits assumed): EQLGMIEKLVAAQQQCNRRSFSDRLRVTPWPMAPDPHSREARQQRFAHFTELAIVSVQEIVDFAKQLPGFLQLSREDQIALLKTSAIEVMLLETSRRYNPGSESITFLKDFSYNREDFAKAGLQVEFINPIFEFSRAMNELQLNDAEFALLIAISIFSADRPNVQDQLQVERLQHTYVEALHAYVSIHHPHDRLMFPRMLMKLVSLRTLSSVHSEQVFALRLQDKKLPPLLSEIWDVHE
T6 sequence (P05177 whole entry): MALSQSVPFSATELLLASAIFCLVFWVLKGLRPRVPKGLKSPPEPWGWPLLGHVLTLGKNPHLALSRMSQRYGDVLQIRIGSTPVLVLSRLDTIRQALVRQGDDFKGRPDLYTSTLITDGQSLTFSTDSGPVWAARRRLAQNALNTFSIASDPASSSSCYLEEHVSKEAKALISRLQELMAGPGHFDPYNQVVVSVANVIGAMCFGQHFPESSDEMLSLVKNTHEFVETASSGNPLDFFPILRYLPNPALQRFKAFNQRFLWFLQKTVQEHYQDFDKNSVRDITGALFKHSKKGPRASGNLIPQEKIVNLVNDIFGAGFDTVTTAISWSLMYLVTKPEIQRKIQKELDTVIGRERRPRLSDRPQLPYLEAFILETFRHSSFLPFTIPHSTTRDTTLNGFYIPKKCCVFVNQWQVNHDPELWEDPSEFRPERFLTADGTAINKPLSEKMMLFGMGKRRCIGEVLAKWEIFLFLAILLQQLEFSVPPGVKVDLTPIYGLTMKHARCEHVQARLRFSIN
T3 sequence (P37231 238-503 limits assumed): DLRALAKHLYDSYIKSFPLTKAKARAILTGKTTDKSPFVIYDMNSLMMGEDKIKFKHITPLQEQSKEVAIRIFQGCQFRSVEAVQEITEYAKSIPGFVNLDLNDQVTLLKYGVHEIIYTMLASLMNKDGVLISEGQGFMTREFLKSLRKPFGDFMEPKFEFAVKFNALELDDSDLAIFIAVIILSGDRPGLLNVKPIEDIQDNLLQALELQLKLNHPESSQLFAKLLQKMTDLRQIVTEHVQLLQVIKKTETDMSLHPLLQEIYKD
T4 sequence (Q03181 211-439 limits assumed): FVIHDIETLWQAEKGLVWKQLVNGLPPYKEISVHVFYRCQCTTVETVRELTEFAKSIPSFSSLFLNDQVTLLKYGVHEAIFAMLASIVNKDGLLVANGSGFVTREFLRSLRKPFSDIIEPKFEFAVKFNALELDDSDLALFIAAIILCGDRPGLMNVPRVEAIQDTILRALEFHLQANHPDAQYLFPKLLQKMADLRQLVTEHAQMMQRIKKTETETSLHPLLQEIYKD

As to `NC(=O)c1cc(Cn2cc(-c3c(-c4ccc(Cl)cc4)nc4cc(F)ccn34)nn2)ccc1Cl` [Example 93, 2-Chloro-5-((4-(2-(4-chlorophenyl)-7-fluoroimidazo[1,2-a]pyridin-3-yl)-1H-1,2,3-triazol-1-yl)methyl)benzamide], on human CAR LBD, the EC50 is 0.38 µM. Also, on CAR variant 3, the “CAR3 % of CITCO (1 μM) activity at 1 μM” value is reported as 83%. The IC50 with HepG2 cells was above 30 µM; in the data set with COS-1 cells it was above 30 µM; against human CYP1A2 it was above 10 µM; in [7] it was above 10 µM. The “viability/cytotoxicity in differentiated HepaRG cells” value in data set [1] is listed as “no effect on viability/cytotoxicity”. Besides, the “viability/cytotoxicity in primary human hepatocytes” value in data set [2] was “no effect on viability/cytotoxicity”. For the same compound, the “CAR+A-EGFP fusion protein translocation into nucleus” value in data set [3] is recorded as “significantly stimulates”. Besides, the “activation of PPARγ” value on PPARγ is on record as “do not activate”. The “activation of PPARδ” value on PPARδ is “do not activate”. For the same compound, on live X receptor α, the “activation of live X receptor α” value is given as “do not activate”. In [4], this compound displayed a fraction unbound at 1 μM of 0.01. For the same compound, the “CYP2B6 mRNA in differentiated HepaRG cells” value in data set [5] was “upregulates; also recorded: up-regulation”. Also, the “CYP3A4 mRNA in the liver” value in [6] was “up-regulate”. The “Cyp2b10 mRNA in the liver” value in data set [6] was “up-regulate”. Also, the “Cyp2c29 mRNA in the liver” value in data set [6] was “up-regulate”. Moreover, the “Bioavailability (F) based on AUCp.o./AUCi.p. ratio” value in data set [8] (10 mg/kg, C57BL/6N mice) is given as 98.6%. Also, the “delivery into the liver and bile” value in data set [8] (FIG. 6) was “excellent delivery into the liver and bile”.

What is called EC50 is the concentration giving half of the maximal effect. Higher therefore signals a less potent agent. By IC50 is commonly meant the concentration that inhibits the measured activity by half. One may read the fraction unbound as free concentration divided by total concentration. Read a high fraction unbound as much free substance.

The record behind these values is patent US20220185822A1, “SELECTIVE LIGANDS OF HUMAN CONSTITUTIVE ANDROSTANE RECEPTOR” (USTAV ORGANICKE CHEMIE A BIOCHEMIE AV CR, V.V.I., priority 2019, published 2022).
